This note sets out measurements from US11109590B2 (priority 2017, dated 2021).

Experiment [1] deals with P. aeruginosa (PA01) in biofilm. The experiment is described as follows: Antimicrobial efficacy in relation to bacteria in biofilm (24 hours old). The class given is cell-based. The note with it: for Log10 reduction factor: biofilm, starting number > 8 log10 cfu/cm^2.
In experiment [2] the test system is Legionella pneumophilia (ATCC 33152). The class given is cell-based. The note with it: pH 8.0, 0.005% yeast extract.

Read-outs that look alike come from different tables or passages of the source. Bounds are passed on as bounds.

Turning to `OO` [H2O2, hydrogen peroxide], the Log10 reduction factor in experiment [1] (1.7% solution, 5 min exposure) is recorded as 0.84 Log10; in experiment [1] (1.7% solution, 15 min exposure), 1.62 Log10; in experiment [1] (1.7% solution, 30 min exposure) it was 1.95 Log10; in experiment [1] (1.7% solution, 60 min exposure), 2.53 Log10; in experiment [1] (17% aqueous solution, 5 min exposure) it was over 8.00 Log10; in experiment [1] (17% aqueous solution, 15 min exposure) it was over 8.00 Log10. The Log10 reduction factor was over 8.00 Log10 in experiment [1] (17% aqueous solution, 30 min exposure); over 8.00 Log10 in experiment [1] (17% aqueous solution, 60 min exposure); 2.24 Log10 in experiment [2] (7.50% aqueous solution, 15 min exposure); 3.44 Log10 in experiment [2] (7.50% aqueous solution, 30 min exposure); 4.25 Log10 in experiment [2] (7.50% aqueous solution, 60 min exposure); 4.83 Log10 in experiment [2] (7.50% aqueous solution, 120 min exposure). For the same compound, the “antimicrobial efficacy in biofilms (in words)” value in experiment [1] (1.7%, compared to 17% H2O2 and 100% PAM) is recorded as “significant loss of antimicrobial efficacy”. Moreover, the “antimicrobial efficacy in relation to biofilms (in words)” value in experiment [1] (17%) was “high and substantially equivalent”. Moreover, the “antimicrobial effect in relation to the test organisms in biofilms 24 hours old (in words)” value in experiment [1] (17% solution, after just 5 minutes of exposure time) is given as “high antimicrobial effect”.
Turning to “polyoxyethylene (20) sorbitan monooleate [PSb 80]”, the Log10 reduction factor is listed as 0.06 Log10 in experiment [2] (aqueous 1% solution, 15 min exposure); 0.09 Log10 in experiment [2] (aqueous 1% solution, 30 min exposure); 0.09 Log10 in experiment [2] (aqueous 1% solution, 60 min exposure); 0.11 Log10 in experiment [2] (aqueous 1% solution, 120 min exposure).
